Format: physicochemical
Conditions: polymerization initiator
From the text: The octanol/water partition coefficient is also expressed as LogPow and is an index representing hydrophobicity (solubility in lipid) of a chemical substance. The measurement method of the octanol/water partition coefficient is basically in accordance with OECD Test Guideline (“C (81) 30 appendix 1” determined by OECD Board of Directors) 107 or Japanese Industrial Standards Z7260-107 (2000), “Determination of partition coefficient (1-octanol/water)-Shake flask method”.

## CC(C)(C)OO [t-butyl hydroperoxide]
  octanol/water partition coefficient: −1.3
